Laboratory results from publication PMC6789111, “Crossing the blood-brain-barrier with nanoligand drug carriers self-assembled from a phage display peptide” (Nature Communications, 2019).
Read-outs that look alike come from different tables or passages of the source. Peptide text beside a SMILES is read from it. * marks the point of attachment. 5FAM = O=C1OC2(c3ccc(O)cc3Oc3cc(O)ccc32)c2ccc(C(=O)*)cc21

Tests used:
hCMEC/D3 cells [1] = experiment: Competition studies of NLC uptake; assay type: cell-based, human
Procedure: The amyloid β1–42 oligomers were prepared using a previous method. BSA was used as control protein competitor. The fluorescence microscopy and FACS were employed to observe and quantify FAM-CGY self-assembly uptake, respectively.

TNF-α = conditions: Ave.
Procedure: Tissues were sectioned at a […] thickness.
Blood samples were collected for determination of red blood cell count, white blood cell count, haemoglobin, haematocrit, mean corpuscular volume, mean corpuscular haemoglobin, mean corpuscular haemoglobin concentration and platelet count (XFA6030, Perlong Medical Inc., China). Hippocampus was dissected out, rinsed in ice-cold PBS thoroughly, weighted and immediately frozen in liquid nitrogen. Tissues were cut into small pieces and homogenized in 1 mL ice-cold PBS with a glass homogeniser and sonicated with an ultrasonic cell disrupter to break the cell membranes. Homogenates were centrifuges for 5 min at 5,000 × g and supernatants were assayed immediately for quantitative determination of TNF-α, IL-6, IL-1β, Iba-1 and GFAP by corresponding ELISA kits, respectively in accordance with manufacturer’s instructions.

IL-6 = experiment: ELISA of IL-6 in hippocampus; assay type: in vivo, ICR mice; conditions: Ave.
Procedure: After 4, 24 and 72 h post injection, mice were sacrificed and perfused with 10 mL 0.9% (w/v) saline at a rate of 2 mL min^−1.

IL-1β = experiment: ELISA of IL-1β in hippocampus; assay type: in vivo, ICR mice; conditions: Ave.
hCMEC/D3 cell monolayer = experiment: Transwell in vitro BBB model; assay type: cell-based, human
Procedure: For the construction of the in vitro BBB model, hCMEC/D3 cells were seeded on rat tail collagen-coated polycarbonate membranes (Transwell, No. 3401 Costar; Corning, Wiesbaden, Germany; 0.4 μm pore size; 1.13 cm^2 growth area) with a density of 100,000 cells cm^−2. Every three days the cell medium was change. In general after 7 days growth, the cells reached confluence. The transendothelial electrical resistance (TEER) and cell layer capacitance (CCL), which reflects the membrane surface area of the hCMEC/D3 cell monolayer, were measured using CellZscope system (NanoAnalytics, Münster, Germany). Cells with CCL values in the range of 0.5–5.0 μF cm^−2 indicate cell confluence and validate TEER values were selected for the transfer experiments. NLCs at different concentrations were introduced in to the apical side of the BBB model. The TEER values were measured during the incubation. After 24 h of incubation, the media from basal and apical sides were sampled and analysed for fluorescent measurement. CD31 and paracellular adherens (β-catenin) junctions were assessed by immunofluorescence labeling directly on the cell monolayer attached to the transwell membrane. Briefly, cells were fixed by 4% v/v paraformaldehyde for 10 min, rinsed and then permeabilised with 0.5% (v/v) Triton X-100 for 10 min. After rinsing samples were blocked by 5% w/v BSA for 1 h, followed by incubation with primary antibodies (rabbit polyclonal to CD31, rabbit polyclonal to anti-β-catenin) in 1% w/v BSA overnight at 4 °C. […] After rinsing, the red fluorescence from tight junction proteins was observed by a Leica AF6000LX microscope equipped with a 63 × objective using ×1.6 magnifications. […]
formation of multiple cell-layers was sometime observed from day 7 onward. […] TEER values and its corresponding capacitance were recorded after the introduction of peptide for 24 h. (d) & (e) Staining and quantification of endothelial cells (CD31) and adheren β-catenin markers confirming the presence of a functional tight junction before and after NLC ( 5 µM) challenge. […]

hCMEC/D3 cells [2] = system: hCMEC/D3 cells
Procedure: LDH release was followed at 24 h post transfection procedures. The measurement was performed using CytoTox96® Non-Radioactive Cytotoxicity Assay kit (Promega, WI, USA)[43]. The maximum amount of LDH in the cells, induced by the addition of a lysis solution, was measured and used as a 100% LDH release and compared with peptidoplex and siPORT-siRNA complex-induced LDH release as well as to spontaneous cellular LDH release (untreated cells).

[3] = mouse, in vivo, iv
Procedure: After 4, 24 and 72 h post injection, mice were sacrificed and perfused with 10 mL 0.9% (w/v) saline at a rate of 2 mL min^−1. Organs (brain, heart, liver, lung, kidney, spleen) were collected for haematoxylin-eosin (H&E) analysis. Tissues were sectioned at a 5 mm thickness. H&E staining was done by submersion in Harris hematoxylin followed by differentiation through 37% HCl and Li2CO3 solution. An Olympus optical microscope (Tokyo, Japan) was used for assessing slides.

[4] = mouse, in vivo, iv; remark: listed apart in the source
Procedure: In some experiments, animals were transcardially perfused with 10 mL 0.9% (w/v) saline at a rate of 2 mL min^−1 through the left ventricle to remove the blood from the brain, followed by 20 mL 4% (v/v) paraformaldehyde in phosphate buffered saline (PBS, pH = 7.4). The brain was removed and post-fixed overnight in 4% (v/v) paraformaldehyde followed by dehydration with 30% (w/v) sucrose solution in PBS at 4 °C. Frozen sections were cut on a cryostat (Thermo fisher, USA). […] To visualise neurons, microglial and astrocytes, sections were first stained with antibodies against Tuj1 (1:500), Iba1 (1:300) and GFAP (1:300), respectively, and then with donkey anti-mouse Alexa Fluor®555 (1:1000 dilution) secondary antibody. DAPI staining was performed to visualise cell nuclei.

hCMEC/D3 cells [5] = experiment: Uptake with internalisation inhibitors; conditions: 37 °C
Procedure: The medium was then removed and replaced with a fresh medium containing NLCs and the corresponding inhibitor. After 8 h of incubation at 37 °C, cells were washed three times with cell medium and analysed by FACS. Cell viability at the end of each experiment was >90% as determined by Trypan Blue exclusion test. The following inhibitors were used: 2-deoxy-D-glucose (1 mM)/sodium azide (1 mM) as energy-dependent inhibitors, worthmanin (10 μM) as macropinocytosis inhibitor, chloropromazine (30 μM) as clathrin-dependent endocytosis inhibitor, N-ethylmaleimide (5 μM) as caveolae-dependent endocytosis and transcytosis inhibitor and indomethacin (200 μM) as caveolae-dependent endocytosis inhibitor.

CC[C@H](C)[C@H](NC(=O)[C@H](CC(N)=O)NC(=O)[C@H](Cc1c[nH]cn1)NC(=O)[C@@H](NC(=O)[C@@H]1CCCN1C(=O)[C@H](CCCNC(=N)N)NC(=O)[C@H](Cc1ccc(O)cc1)NC(=O)CNC(=O)[C@H](CS)NC(=O)c1ccc2c(c1)C(=O)OC21c2ccc(O)cc2Oc2cc(O)ccc21)C(C)C)C(=O)N[C@@H](CCCNC(=N)N)C(=O)NCC(=O)N[C@@H](Cc1c[nH]cn1)C(=O)N[C@@H](Cc1c[nH]c2ccccc12)C(=O)N[C@@H](C)C(=O)N1CCC[C@H]1C(=O)NCC(=O)O [FAM-CGY] (5FAM-CGYRPVHNIRGHWAPG-OH)
inhibition of NLC uptake by transferrin (hCMEC/D3 cells [1]; 500 nM partially iron saturated human transferrin, 37 °C): ~ 50% | FAM-CGY uptake (% of control) (hCMEC/D3 cells [1]; 5 µM NLC + 62.5 nM Tf, Ave. All): 78.89 % of control | FAM-CGY uptake (% of control) (hCMEC/D3 cells [1]; 5 µM NLC + 62.5 nM Tf, Set 2): 73.26 % of control | FAM-CGY uptake (% of control) (hCMEC/D3 cells [1]; 5 µM NLC + 62.5 nM Tf, Set 3): 81.15 % of control | FAM-CGY uptake (% of control) (hCMEC/D3 cells [1]; 5 µM NLC + 62.5 nM transferrin (Tf), 16 h, FACS, Set 1): 82.27 % of control | FAM-CGY uptake (% of control) (hCMEC/D3 cells [1]; 5 µM NLC + 250 nM Tf+20 μg RAGE P, Ave. All): 33.57 % of control | FAM-CGY uptake (% of control) (hCMEC/D3 cells [1]; 5 µM NLC + 250 nM Tf, Ave. All): 53.82 % of control | FAM-CGY uptake (% of control) (hCMEC/D3 cells [1]; 5 µM NLC + 500 nM Tf, Ave. All): 48.73 % of control | FAM-CGY uptake (% of control) (hCMEC/D3 cells [1]; 5 µM NLC + 5 μg RAGE P, Ave. All): 90.44 % of control | FAM-CGY uptake (% of control) (hCMEC/D3 cells [1]; 5 µM NLC + 5 μg RAGE P, Set 2): 86.26 % of control | FAM-CGY uptake (% of control) (hCMEC/D3 cells [1]; 5 µM NLC + 5 μg RAGE P, Set 3): 92.62 % of control | FAM-CGY uptake (% of control) (hCMEC/D3 cells [1]; 5 µM NLC + 5 μg RAGE peptide (RAGE P), Set 1): 92.46 % of control | FAM-CGY uptake (% of control) (hCMEC/D3 cells [1]; 5 µM NLC + 10 μg RAGE P, Ave. All): 82.03 % of control | FAM-CGY uptake (% of control) (hCMEC/D3 cells [1]; 5 µM NLC + 20 μg RAGE P, Ave. All): 58.83 % of control | FAM-CGY uptake (% of control) (hCMEC/D3 cells [1]; 5 µM NLC + 40 μg BSA (irrelevant protein), Set 1): 108.69 % of control | FAM-CGY uptake (% of control) (hCMEC/D3 cells [1]; 5 µM NLC + 40 μg BSA, Ave. All): 103.56 % of control | FAM-CGY uptake (% of control) (hCMEC/D3 cells [1]; 5 µM NLC + 40 μg BSA, Set 2): 96.26 % of control | FAM-CGY uptake (% of control) (hCMEC/D3 cells [1]; 5 µM NLC + 40 μg BSA, Set 3): 105.73 % of control | block of NLC uptake by transferrin plus RAGE peptide ligand (hCMEC/D3 cells [1]; simultaneous presence of both): ~ 70% | TNF-α in hippocampus (Figure 6e) (TNF-α; 4 h after i.v.): 13.40 | TNF-α in hippocampus (Figure 6e) (TNF-α; 24 h after i.v. (LPS 24 h)): 12.87 | TNF-α in hippocampus (Figure 6e) (TNF-α; 72 h after i.v.): 12.94 | IL-6 in hippocampus (Figure 6f) (IL-6; 4 h after i.v.): 6.03 | IL-6 in hippocampus (Figure 6f) (IL-6; 72 h after i.v.): 6.23 | IL-1β in hippocampus (Figure 6g) (IL-1β; 4 h after i.v.): 21.06 | IL-1β in hippocampus (Figure 6g) (IL-1β; 24 h after i.v. (LPS 24 h)): 23.58 | IL-1β in hippocampus (Figure 6g) (IL-1β; 72 h after i.v.): 22.65 | transport across the hCMEC/D3 monolayer (hCMEC/D3 cell monolayer): transport of a fraction across the monolayer | plasma membrane integrity (extracellular LDH) (hCMEC/D3 cells [2]): neither FAM-CGY NLCs nor FAM-CGY/siRNA nanoparticles perturbed plasma membrane integrity | histology of liver, kidneys, heart, lungs, spleen [3]: no adverse morphological changes and inflammatory reactions | association with brain parenchymal cells [4]: neurons and microglial cells, but not with astrocytes | Mean flouresence (%), uptake vs Control (no inhibitor) (hCMEC/D3 cells [5]; CPZ (chloropromazine 30 μM), 8 h, replicate 1): 50.26% | Mean flouresence (%), uptake vs Control (no inhibitor) (hCMEC/D3 cells [5]; CPZ (chloropromazine 30 μM), 8 h, replicate 2): 42.26% | Mean flouresence (%), uptake vs Control (no inhibitor) (hCMEC/D3 cells [5]; CPZ (chloropromazine 30 μM), 8 h, replicate 3): 56.45% | Mean flouresence (%), uptake vs Control (no inhibitor) (hCMEC/D3 cells [5]; DOG+NaN3 (1 mM/1 mM), 8 h, replicate 2): 62.26% | Mean flouresence (%), uptake vs Control (no inhibitor) (hCMEC/D3 cells [5]; DOG+NaN3 (1 mM/1 mM), 8 h, replicate 3): 36.09% | Mean flouresence (%), uptake vs Control (no inhibitor) (hCMEC/D3 cells [5]; DOG+NaN3 (2-deoxy-D-glucose 1 mM/sodium azide 1 mM), 8 h, replicate 1): 44.27% | Mean flouresence (%), uptake vs Control (no inhibitor) (hCMEC/D3 cells [5]; IMC (indomethacin 200 μM), 1 h pre-treatment + 8 h, FACS, FAM-CGY NLC 5 µM or Texas Red-transferrin 5 µg per well, replicate 1): 66.27% | Mean flouresence (%), uptake vs Control (no inhibitor) (hCMEC/D3 cells [5]; IMC (indomethacin 200 μM), 8 h, replicate 2): 72.37% | Mean flouresence (%), uptake vs Control (no inhibitor) (hCMEC/D3 cells [5]; IMC (indomethacin 200 μM), 8 h, replicate 3): 72.43% | Mean flouresence (%), uptake vs Control (no inhibitor) (hCMEC/D3 cells [5]; NEM (N-ethylmaleimide 5 μM), 8 h, replicate 1): 56.24% | Mean flouresence (%), uptake vs Control (no inhibitor) (hCMEC/D3 cells [5]; NEM (N-ethylmaleimide 5 μM), 8 h, replicate 2): 70.26% | Mean flouresence (%), uptake vs Control (no inhibitor) (hCMEC/D3 cells [5]; NEM (N-ethylmaleimide 5 μM), 8 h, replicate 3): 66.59% | Mean flouresence (%), uptake vs Control (no inhibitor) (hCMEC/D3 cells [5]; WOR (worthmanin 10 μM), 8 h, replicate 1): 73.57% | Mean flouresence (%), uptake vs Control (no inhibitor) (hCMEC/D3 cells [5]; WOR (worthmanin 10 μM), 8 h, replicate 2): 75.56% | Mean flouresence (%), uptake vs Control (no inhibitor) (hCMEC/D3 cells [5]; WOR (worthmanin 10 μM), 8 h, replicate 3): 60.92%
